Results as given in patent US4252808A, “β-Lactam antibacterial agents, their use in pharmaceutical compositions, the process for their preparation and intermediates for use in that process” (Beecham Group Limited, priority 1978, dated 1981).
Values after ≈ are worked out from the molar mass of the structure shown. Counter-ions that a name gives are not always drawn. Values belong to the compound of their own block, whether it stands above or below them.

Tests used:
Assay type in all cases: cell-based
Staph. aureus Russell [1] = test: MIC, nutrient agar; details: Staphylococcus aureus, Staph. aureus Russell (lactamase-producing strain)
Source text: *Lactamase-producing strain
*lactamase producing strain

Staph. aureus Oxford [2] = test: MIC, nutrient agar; details: Staphylococcus aureus
B. subtilis [3] = test: MIC, nutrient agar; details: Bacillus subtilis
β-Haemolytic Strep CN10 = test: MIC, nutrient agar
E. coli JT 1 [4] = test: MIC, nutrient broth (10^-4 dilution); details: Escherichia coli, JT1
E. coli NCTC 10418 [5] = test: MIC, nutrient broth (10^-4 dilution); details: Escherichia coli, NCTC10418
Staph. aureus Russell [6] = test: MIC, nutrient broth (10^-4 dilution); details: Staphylococcus aureus, Staph. aureus Russell (lactamase producing strain)
Source text: *Lactamase producing strains
*Lactamase producing strain

Staph. aureus Oxford [7] = test: MIC, nutrient broth (10^-4 dilution); details: Staphylococcus aureus
S. pneumoniae CN 33 = test: MIC, serial dilution in DST agar with 10% horse blood (Table 2); details: Streptococcus pneumoniae, CN33, inoculum diluted 10^-2
Source text: (§1) *Serial dilution in DST agar containing 10% horse blood, inoculum 0.001 m
(§2) broth culture diluted 10^-2 for Grampositive and 10^-4 for
(§3) Gramnegative organisms.

E. coli 0111 = test: as above; details: Escherichia coli, inoculum diluted 10^-4
Source text: as §1, §2, §3

S. aureues Russell = test: as above; details: Staphylococcus aureus, inoculum diluted 10^-2
Source text: as §1, §2, §3

S. pyogenes CN 10 [8] = test: as above; details: Streptococcus pyogenes, CN10, inoculum diluted 10^-2
Source text: as §1, §2, §3

S. faecalis 1 [9] = test: as above; details: Enterococcus faecalis, inoculum diluted 10^-2
Source text: as §1, §2, §3

S. aureus 1517 [10] = test: as above; details: Staphylococcus aureus, inoculum diluted 10^-2
Source text: as §1, §2, §3

P. rettgeri WM 16 = test: as above; details: Providencia rettgeri, WM16, inoculum diluted 10^-4
Source text: as §1, §2, §3

K. aerogenes A [11] = test: as above; details: Klebsiella aerogenes, inoculum diluted 10^-4
Source text: as §1, §2, §3

S. aureus Oxford [12] = test: as above; details: Staphylococcus aureus, inoculum diluted 10^-2
Source text: as §1, §2, §3

E. cloacae Nl [13] = test: as above; details: Enterobacter cloacae, inoculum diluted 10^-4
Source text: as §1, §2, §3

B. subtilis [14] = test: as above; details: Bacillus subtilis, inoculum diluted 10^-2
Source text: as §1, §2, §3

P. mirabilis C 977 [15] = test: as above; details: Proteus mirabilis, C977, inoculum diluted 10^-4
Source text: as §1, §2, §3

P. morganii 1580 = test: as above; details: Morganella morganii, inoculum diluted 10^-4
Source text: as §1, §2, §3

E. coli JT 4 [16] = test: MIC, serial dilution in nutrient agar with 5% horse blood (Table 1); details: Escherichia coli, JT4, inoculum 0.001 ml undiluted broth culture
Procedure: (§4) | *Serial dilution in nutrient agar containing 5% horse blood, inoculum | 0.001 ml undiluted broth culture.

S. pyogenes CN 10 [17] = test: as above; details: Streptococcus pyogenes, CN10, inoculum 0.001 ml undiluted broth culture
Procedure: as §4

S. faecalis 1 [18] = test: as above; details: Enterococcus faecalis, inoculum 0.001 ml undiluted broth culture
Procedure: as §4

S. aureus 1517 [19] = test: as above; details: Staphylococcus aureus, inoculum 0.001 ml undiluted broth culture
Procedure: as §4

K. aerogenes A [20] = test: as above; details: Klebsiella aerogenes, inoculum 0.001 ml undiluted broth culture
Procedure: as §4

S. aureus Oxford [21] = test: as above; details: Staphylococcus aureus, inoculum 0.001 ml undiluted broth culture
Procedure: as §4

P. morganii [22] = test: as above; details: Morganella morganii, inoculum 0.001 ml undiluted broth culture
Procedure: as §4

B. subtilis [23] = test: as above; details: Bacillus subtilis, inoculum 0.001 ml undiluted broth culture
Procedure: as §4

P. mirabilis C 977 [24] = test: as above; details: Proteus mirabilis, C977, inoculum 0.001 ml undiluted broth culture
Procedure: as §4

S. aureus Russell = test: as above; details: Staphylococcus aureus, inoculum 0.001 ml undiluted broth culture
Procedure: as §4

P. rettgeri [25] = test: as above; details: Providencia rettgeri, inoculum 0.001 ml undiluted broth culture
Procedure: as §4

Staph. aureus Oxford [26] = test: MIC, nutrient broth; details: Staphylococcus aureus
E. coli JT 1 [27] = test: MIC, nutrient broth; details: Escherichia coli, JT1
E. coli NCTC 10418 [28] = test: MIC, nutrient broth; details: Escherichia coli, NCTC10418
Staph. aureus Russell [29] = test: MIC, nutrient broth; details: Staphylococcus aureus, Staph. aureus Russell (lactamase producing strain)
Source text: | *lactamase producing strain

E. cloacae Nl [30] = test: MIC, serial dilution in nutrient agar with 5% horse blood (Table 1); details: Enterobacter cloacae, inoculum 0.001 ml undiluted broth culture
Procedure: as §4

Ps. aeruginosa Dalgleish = test: MIC, nutrient agar; details: Pseudomonas aeruginosa, Ps. aeruginosa Dalgleish 10^-2
P. rettgeri [31] = test: MIC, nutrient agar; details: Providencia rettgeri
Enterobacter cloacae Nl = test: MIC, nutrient agar
E. coli JT 4 [32] = test: MIC, nutrient agar; details: Escherichia coli, JT4
Klebsiella aerogenes A = test: MIC, nutrient agar
P. mirabilis C977 = test: MIC, nutrient agar; details: Proteus mirabilis
P. morganii [33] = test: MIC, nutrient agar; details: Morganella morganii

SMILES: CC1=C(C(=O)O)N2C(=O)[C@@H](NC(=O)Cc3cccs3)[C@H]2n2nncc21 [Compound 43, (3aR,4S) 4,5-Dihydro-5-oxo-8-methyl-4-(2-thienylacetamido)-3aH-azeto[1,2-a]y-triazolo[3,4-c]pyrimidine-7-carboxylic acid]
MIC (S. pneumoniae CN 33): ≤ 0.2 µg/mL
MIC (E. coli 0111): 10 µg/mL (≈ 27.8 µM)
MIC (S. aureues Russell): 1 µg/mL (≈ 2.78 µM)
MIC (S. pyogenes CN 10 [8]): ≤ 0.2 µg/mL
MIC (S. faecalis 1 [9]): 5 µg/mL (≈ 13.9 µM)
MIC (S. aureus 1517 [10]): 5 µg/mL (≈ 13.9 µM)
MIC (P. rettgeri WM 16): > 100 µg/mL
MIC (K. aerogenes A [11]): 2.5 µg/mL (≈ 6.96 µM)
MIC (S. aureus Oxford [12]): 2.5 µg/mL (≈ 6.96 µM)
MIC (E. cloacae Nl [13]): > 100 µg/mL
MIC (B. subtilis [14]): ≤ 0.2 µg/mL
MIC (P. mirabilis C 977 [15]): 2.5 µg/mL (≈ 6.96 µM)
MIC (P. morganii 1580): 2.5 µg/mL (≈ 6.96 µM)
MIC (E. coli JT 4 [16]): > 100 µg/mL
MIC (S. pyogenes CN 10 [17]): < 0.2 µg/mL
MIC (S. faecalis 1 [18]): 2.5 µg/mL (≈ 6.96 µM)
MIC (S. aureus 1517 [19]): 2.5 µg/mL (≈ 6.96 µM)
MIC (K. aerogenes A [20]): 50 µg/mL (≈ 139 µM)
MIC (S. aureus Oxford [21]): 1 µg/mL (≈ 2.78 µM)
MIC (P. morganii [22]): > 100 µg/mL
MIC (B. subtilis [23]): < 0.2 µg/mL
MIC (P. mirabilis C 977 [24]): 10 µg/mL (≈ 27.8 µM)
MIC (S. aureus Russell): 2.5 µg/mL (≈ 6.96 µM)
MIC (P. rettgeri [25]): > 100 µg/mL

SMILES: CC1=C(C(=O)O)N2C(=O)[C@@H](NC(=O)C(C(=O)Oc3ccccc3)c3ccccc3)[C@H]2n2nncc21 (stereo partly drawn) [Compound 44, (3aR,4S) 4,5-Dihydro-5-oxo-8-methyl-4-DL (α-phenoxycarbonylphenyl-acetamido)-3aH-azeto[1,2-a]v-triazolo[3,4-c]pyrimidine-7-carboxylic acid]
MIC (S. pneumoniae CN 33): 10 µg/mL (≈ 21.1 µM)
MIC (E. coli 0111): 10 µg/mL (≈ 21.1 µM)
MIC (S. aureues Russell): 25 µg/mL (≈ 52.8 µM)
MIC (S. pyogenes CN 10 [8]): 10 µg/mL (≈ 21.1 µM)
MIC (S. faecalis 1 [9]): > 100 µg/mL
MIC (S. aureus 1517 [10]): 100 µg/mL (≈ 211 µM)
MIC (P. rettgeri WM 16): 10 µg/mL (≈ 21.1 µM)
MIC (K. aerogenes A [11]): 10 µg/mL (≈ 21.1 µM)
MIC (S. aureus Oxford [12]): 25 µg/mL (≈ 52.8 µM)
MIC (E. cloacae Nl [13]): 50 µg/mL (≈ 106 µM)
MIC (B. subtilis [14]): 25 µg/mL (≈ 52.8 µM)
MIC (P. mirabilis C 977 [15]): 10 µg/mL (≈ 21.1 µM)
MIC (P. morganii 1580): 10 µg/mL (≈ 21.1 µM)
MIC (E. coli JT 4 [16]): > 100 µg/mL
MIC (S. faecalis 1 [18]): > 100 µg/mL
MIC (S. aureus 1517 [19]): > 100 µg/mL
MIC (K. aerogenes A [20]): 50 µg/mL (≈ 106 µM)
MIC (S. aureus Oxford [21]): 50 µg/mL (≈ 106 µM)
MIC (P. morganii [22]): > 100 µg/mL
MIC (E. cloacae Nl [30]): > 100 µg/mL
MIC (B. subtilis [23]): 25 µg/mL (≈ 52.8 µM)
MIC (P. mirabilis C 977 [24]): 50 µg/mL (≈ 106 µM)
MIC (S. aureus Russell): 100 µg/mL (≈ 211 µM)
MIC (P. rettgeri [25]): > 50 µg/mL

SMILES: CC1=C(C(=O)O)N2C(=O)[C@@H](NC(=O)COc3ccccc3)[C@H]2n2nncc21 [Compound 41, (3aR,4S) 4,5-Dihydro-5-oxo-8-methyl-4-phenoxyacetamido-3aH azeto[1,2-a]v-triazolo[3,4-c]pyrimidine-7-carboxylate acid]
MIC (Ps. aeruginosa Dalgleish): 100 µg/mL (≈ 271 µM)
MIC (P. rettgeri [31]): 100 µg/mL (≈ 271 µM)
MIC (Enterobacter cloacae Nl): 100 µg/mL (≈ 271 µM)
MIC (E. coli JT 4 [32]): 100 µg/mL (≈ 271 µM)
MIC (Klebsiella aerogenes A): 100 µg/mL (≈ 271 µM)
MIC (P. mirabilis C977): > 100 µg/mL
MIC (Staph. aureus Russell [1]): 5 µg/mL (≈ 13.5 µM)
MIC (Staph. aureus Oxford [2]): 2.5 µg/mL (≈ 6.77 µM)
MIC (P. morganii [33]): > 100 µg/mL
MIC (B. subtilis [3]): < 0.2 µg/mL
MIC (β-Haemolytic Strep CN10): 0.5 µg/mL (≈ 1.35 µM)

Further lines, with some results ahead:

MIC (Staph. aureus Russell [1]): 50 µg/mL (≈ 141 µM)
MIC (Staph. aureus Oxford [2]): 10 µg/mL (≈ 28.1 µM)
MIC (B. subtilis [3]): 2.5 µg/mL (≈ 7.04 µM)
SMILES: O=C(COc1ccccc1)N[C@@H]1C(=O)N2C(C(=O)O)=Cc3cnnn3[C@H]12 [Compound 11, (3aR,4S)4,5-dihydro-5-oxo-4-phenoxyacetamido-3aH-azeto-[1,2-a]v-triazolo[3,4-c]pyrimidine-7-carboxylic acid]
MIC (β-Haemolytic Strep CN10): 10 µg/mL (≈ 28.1 µM)

MIC (E. coli JT 1 [4]): 125 µg/mL
MIC (E. coli NCTC 10418 [5]): 125 µg/mL
MIC (Staph. aureus Russell [6]): 125 µg/mL
MIC (Staph. aureus Oxford [7]): 62 µg/mL
SMILES: N[C@@H](C(=O)N[C@@H]1C(=O)N2C(C(=O)O)=Cc3c(-c4ccccc4)nnn3[C@H]12)c1ccccc1 [Compound 24, (3aR,4S)-4,5-Dihydro-5-oxo-9-phenyl-4-D-α-phenylglycylamino-3aH-azeto[1,2-a]v-triazolo [3,4-c]pyrimidine-7-carboxylic acid, trifluoroacetic acid salt]

MIC (Staph. aureus Oxford [26]): 16 µg/mL (≈ 33.6 µM)
MIC (E. coli JT 1 [27]): 500 µg/mL (≈ 1050 µM)
MIC (E. coli NCTC 10418 [28]): 500 µg/mL (≈ 1050 µM)
MIC (Staph. aureus Russell [29]): 31 µg/mL (≈ 65.1 µM)
SMILES: O=C(COc1ccccc1)N[C@@H]1C(=O)N2C(C(=O)O)=Cc3c(-c4ccc([N+](=O)[O-])cc4)nnn3[C@H]12 [Compound 33, (3aR,4S) 4,5-Dihydro-5-oxo-9-p-nitrophenyl-4-phenoxy-acetamido-3aH azeto[1,2-a]v-triazolo[3,4-c]pyrimidine-7-carboxylic acid]

MIC (E. coli JT 1 [4]): 125 µg/mL (≈ 290 µM)
MIC (E. coli NCTC 10418 [5]): 125 µg/mL (≈ 290 µM)
MIC (Staph. aureus Russell [6]): 125 µg/mL (≈ 290 µM)
MIC (Staph. aureus Oxford [7]): 31 µg/mL (≈ 71.9 µM)
SMILES: O=C(O)C1=Cc2c(-c3ccccc3)nnn2[C@@H]2[C@H](NC(=O)[C@H](O)c3ccccc3)C(=O)N12 [Compound 18, (3aR,4S) 4,5-Dihydro-5-oxo-9-phenyl-4-D-mandelylamino-3aH-azeto-[1,2a]v-triazolo[3,4-c]pyrimidine-7-carboxylic acid]
